Assay results published in patent publication US7959951B2, “Nitric oxide and its biomedical significance” (The Research Foundation at State University of New York, priority 2002, dated 2011).

Test system: E. coli bacteria
Assay: Inhibition of bacterial growth in LB broth culture
Assay type: cell-based
Settings: One μg/ml in LB broth, 37° C, streaked on LB-agar
Method: A dried, powdered, formulation of a 1:1 mixture of the wheat grass extract and white willow bark extract prepared in Example 1 above was tested for its ability to inhibit bacterial growth in culture. The formulation was reconstituted in 10 ml of LB broth (Amersham Biosciences, Inc.). The broth was then inoculated with E. coli bacteria and incubated for 5 and 24 hours at 37° C. 20 μl of the cultures were streaked on LB-agar plates and incubated overnight at 37° C. […] An additional control experiment was conducted with the known antibacterial agent, SNAP. One μg/ml SNAP was added to LB broth. The broth was then inoculated with E. coli bacteria and incubated for 5 and 24 hours at 37° C. 20 μl of the cultures were streaked on LB-agar plates and incubated overnight at 37° C. Bacterial growth was decreased in the SNAP culture at 5 and 24 hours, as compared to the control.

With `CC(=O)N[C@@H](C(=O)O)C(C)(C)SN=O` (racemic) [SNAP] the “bacterial growth at 5 and 24 hours compared to control” value was “decreased”.
